{"source": "ChEMBL document CHEMBL5441381", "about": "“ASAP - In vitro antiviral effect” (2024)", "key": {"SARS-CoV-2 [1]": {"system": "SARS-CoV-2", "assay": "(§1) Functional immunofluorescence assay to measure dose dependent changes in antiviral-drug inhibitory efficacy against hCoV-19/USA-WA1/2020 in HeLa-ACE2 cells which are seeded prior to drug treatment, then infected with hCoV-19/USA-WA1/2020. Cells are fixed with 10 % formaldehyde, washed with PBS, permeabilized with permeabilization buffer, then washed with wash buffer. The cells are incubated with nucleoprotein primary antibody IC7C7. Following primary staining, cells are washed with wash buffer and incubated in a solution of with Alexa fluor 488 and DAPI. Infected and uninfected cells are visualized and analyzed by Gen5 software. The assay has been performed by Icahn School of Medicine at Mount Sinai.", "type": "organism-based, Homo sapiens"}, "SARS-CoV-2 [2]": {"system": "SARS-CoV-2", "assay": "as §1, with “iPSC-Pneumocyte” for “HeLa-ACE2”, “to” for “to drug”", "type": "organism-based, Homo sapiens", "settings": "for EC90: Baseline response 0 %, Maximum response 100 %"}, "[3]": {"settings": "Severe acute respiratory syndrome coronavirus 2, HeLa-ACE2"}}, "note": "Where “and” joins values, the source holds several entries; their conditions need not be identical. Equal values may be shown once.", "data": [{"smiles": "CC(C)[C@@H](Nc1ncnc2[nH]c(-c3cnn(C)c3C#N)cc12)c1ccc2c(c1)OCCO2", "values": [{"measurement": "EC90", "setting": "SARS-CoV-2 [1]; Baseline response 0 %, EC90 CI (lower) 0.491 uM, EC90 CI (upper) 1.004 uM, Hill slope -2.446, Maximum measured 109.522 %, Maximum response 100 %, Minimum measured 0 %, R squared 0.979", "result": 4.23, "unit": "µM"}, {"measurement": "EC50", "setting": "SARS-CoV-2 [1]; [3]", "result": 1.73, "unit": "µM"}, {"measurement": "EC90", "setting": "SARS-CoV-2 [1]; Severe acute respiratory syndrome coronavirus 2, HeLa-ACE2, Baseline response 0 %, EC90 CI (lower) 0.194 uM, EC90 CI (upper) 2.46 uM, Hill slope -2.403, Maximum measured 109.522 %, Maximum response 100 %, Minimum measured 3.811 %, R squared 0.7", "result": 4.31, "unit": "µM"}, {"measurement": "EC50", "setting": "SARS-CoV-2 [1]; hela-ace2", "result": 1.72, "unit": "µM"}, {"measurement": "EC90", "setting": "SARS-CoV-2 [2]; Severe acute respiratory syndrome coronavirus 2, Pneumocyte, Hill slope -15.978, Maximum measured 108.15 %, Minimum measured 1.229 %, R squared 0.666", "result": 16.2, "unit": "µM"}, {"measurement": "EC90", "setting": "SARS-CoV-2 [2]; Severe acute respiratory syndrome coronavirus 2, Pneumocyte, EC90 CI (lower) 0 uM, EC90 CI (upper) 0 uM, Hill slope -11.115, Maximum measured 116.315 %, Minimum measured 8.563 %, R squared 0.796", "result": 6.57, "unit": "µM"}, {"measurement": "EC50", "setting": "SARS-CoV-2 [2]; pneumocyte", "result": "14.1 µM and 5.39 µM"}]}, {"smiles": "CC(C)[C@@H](Nc1ncnc2[nH]cc(C(=O)NC3CC3)c12)c1ccc2c(c1)S(=O)(=O)CCC2", "values": [{"measurement": "EC50", "setting": "SARS-CoV-2 [1]; [3]", "result": 14.4, "unit": "µM"}, {"measurement": "EC90", "setting": "SARS-CoV-2 [1]; Severe acute respiratory syndrome coronavirus 2, HeLa-ACE2, Baseline response 0 %, Hill slope -1.207, Maximum measured 103.36 %, Maximum response 100 %, Minimum measured 37.723 %, R squared 0.64", "result": "> 20", "unit": "µM"}]}, {"smiles": "CC(C)[C@@H](Nc1ncnc2[nH]c(-c3ccc4nnn(C)c4c3)cc12)c1ccc2c(c1)S(=O)(=O)CCC2", "values": [{"measurement": "EC50", "setting": "SARS-CoV-2 [1]; [3]", "result": 3.64, "unit": "µM"}, {"measurement": "EC90", "setting": "SARS-CoV-2 [1]; Severe acute respiratory syndrome coronavirus 2, HeLa-ACE2, Baseline response 0 %, Hill slope -0.69, Maximum measured 110.665 %, Maximum response 100 %, Minimum measured 33.895 %, R squared 0.849", "result": "> 20", "unit": "µM"}]}, {"smiles": "CC(C)[C@@H](Nc1ncnc2[nH]c(-c3cnn(CCC(N)=O)c3)cc12)c1ccc2c(c1)OCCO2", "values": [{"measurement": "EC50", "setting": "SARS-CoV-2 [1]; [3]", "result": "> 20", "unit": "µM"}, {"measurement": "EC90", "setting": "SARS-CoV-2 [1]; Severe acute respiratory syndrome coronavirus 2, HeLa-ACE2, Maximum measured 112.19 %, Minimum measured 96.19 %", "result": "> 20", "unit": "µM"}, {"measurement": "EC90", "setting": "SARS-CoV-2 [1]; Severe acute respiratory syndrome coronavirus 2, HeLa-ACE2, Maximum measured 121.913 %, Minimum measured 97.771 %", "result": "> 20", "unit": "µM"}]}, {"smiles": "CC(C)[C@@H](Nc1ncnc2[nH]c(-c3ccc4cncn4c3)cc12)c1ccc2c(c1)S(=O)(=O)CCC2", "values": [{"measurement": "EC50", "setting": "SARS-CoV-2 [1]; [3]", "result": 7.12, "unit": "µM"}, {"measurement": "EC90", "setting": "SARS-CoV-2 [1]; Severe acute respiratory syndrome coronavirus 2, HeLa-ACE2, Baseline response 0 %, Hill slope -0.819, Maximum measured 92.609 %, Maximum response 100 %, Minimum measured 28.375 %, R squared 0.905", "result": "> 20", "unit": "µM"}]}, {"smiles": "CC(C)[C@@H](Nc1ncnc2[nH]c(-c3cncc(S(C)(=O)=O)c3)cc12)c1ccc2c(c1)S(=O)(=O)CCC2", "values": [{"measurement": "EC50", "setting": "SARS-CoV-2 [1]; [3]", "result": "> 20", "unit": "µM"}, {"measurement": "EC90", "setting": "SARS-CoV-2 [1]; Severe acute respiratory syndrome coronavirus 2, HeLa-ACE2, Maximum measured 119.816 %, Minimum measured 96.629 %", "result": "> 20", "unit": "µM"}]}, {"smiles": "CC(C)[C@@H](Nc1ncnc2[nH]c(-c3cnn(CC(N)=O)c3)cc12)c1ccc2c(c1)S(=O)(=O)CCC2", "values": [{"measurement": "EC50", "setting": "SARS-CoV-2 [1]; [3]", "result": "> 20", "unit": "µM"}, {"measurement": "EC90", "setting": "SARS-CoV-2 [1]; Severe acute respiratory syndrome coronavirus 2, HeLa-ACE2, Maximum measured 127.59 %, Minimum measured 107.301 %", "result": "> 20", "unit": "µM"}]}, {"smiles": "CNC(=O)c1cc2c(N[C@@H](c3ccc4c(c3)S(=O)(=O)CCC4)C(C)C)ncnc2[nH]1", "values": [{"measurement": "EC50", "setting": "SARS-CoV-2 [1]; [3]", "result": "> 20", "unit": "µM"}, {"measurement": "EC90", "setting": "SARS-CoV-2 [1]; Severe acute respiratory syndrome coronavirus 2, HeLa-ACE2, Maximum measured 104.869 %, Minimum measured 90.681 %", "result": "> 20", "unit": "µM"}]}, {"smiles": "CNC(=O)c1cccc(-c2cc3c(N[C@H](c4ccc5c(c4)S(=O)(=O)CCC5)C(C)C)ncnc3[nH]2)c1", "values": [{"measurement": "EC50", "setting": "SARS-CoV-2 [1]; [3]", "result": "> 20", "unit": "µM"}, {"measurement": "EC90", "setting": "SARS-CoV-2 [1]; Severe acute respiratory syndrome coronavirus 2, HeLa-ACE2, Baseline response 0 %, Hill slope -6.666, Maximum measured 112.086 %, Maximum response 100 %, Minimum measured 84.591 %, R squared 0.065", "result": "> 20", "unit": "µM"}]}, {"smiles": "CC(C)[C@@H](Nc1ncnc2[nH]c(-c3cnn(CC(=O)N(C)C)c3)cc12)c1ccc2c(c1)OCCO2", "values": [{"measurement": "EC50", "setting": "SARS-CoV-2 [1]; [3]", "result": "> 20", "unit": "µM"}, {"measurement": "EC90", "setting": "SARS-CoV-2 [1]; Severe acute respiratory syndrome coronavirus 2, HeLa-ACE2, Baseline response 0 %, Hill slope -0.679, Maximum measured 102.904 %, Maximum response 100 %, Minimum measured 72.697 %, R squared 0.733", "result": "> 20", "unit": "µM"}, {"measurement": "EC90", "setting": "SARS-CoV-2 [1]; Severe acute respiratory syndrome coronavirus 2, HeLa-ACE2, Baseline response 0 %, Hill slope -5.712, Maximum measured 120.313 %, Maximum response 100 %, Minimum measured 86.961 %, R squared 0.099", "result": "> 20", "unit": "µM"}]}, {"smiles": "CC(C)[C@@H](Nc1ncnc2[nH]c(-c3cnn(CC(=O)N(C)C)c3)cc12)c1ccc2c(c1)S(=O)(=O)CCC2", "values": [{"measurement": "EC50", "setting": "SARS-CoV-2 [1]; [3]", "result": "> 20", "unit": "µM"}, {"measurement": "EC90", "setting": "SARS-CoV-2 [1]; Severe acute respiratory syndrome coronavirus 2, HeLa-ACE2, Baseline response 0 %, Hill slope -0.117, Maximum measured 98.615 %, Maximum response 100 %, Minimum measured 84.991 %, R squared 0.091", "result": "> 20", "unit": "µM"}]}, {"smiles": "CC(C)[C@@H](Nc1ncnc2[nH]c(-c3cnn(C)c3C#N)cc12)c1ccc2c(n1)NC(=O)CO2", "values": [{"measurement": "EC50", "setting": "SARS-CoV-2 [1]; [3]", "result": 2.46, "unit": "µM"}, {"measurement": "EC90", "setting": "SARS-CoV-2 [1]; Severe acute respiratory syndrome coronavirus 2, HeLa-ACE2, Baseline response 0 %, EC90 CI (lower) 0.524 uM, EC90 CI (upper) 2.251 uM, Hill slope -2.687, Maximum measured 122.922 %, Maximum response 100 %, Minimum measured 8.802 %, R squared 0.907", "result": 5.57, "unit": "µM"}]}, {"smiles": "Cn1ncc(-c2cc3c(N[C@@H](c4ccc5c(c4)OCCO5)C(C)(C)C)ncnc3[nH]2)c1C#N", "values": [{"measurement": "EC90", "setting": "SARS-CoV-2 [1]; Baseline response 0 %, EC90 CI (lower) 0.293 uM, EC90 CI (upper) 0.492 uM, Hill slope -2.031, Maximum measured 93.387 %, Maximum response 100 %, Minimum measured 1.413 %, R squared 0.981", "result": 3.3, "unit": "µM"}, {"measurement": "EC50", "setting": "SARS-CoV-2 [1]; [3]", "result": 1.05, "unit": "µM"}, {"measurement": "EC90", "setting": "SARS-CoV-2 [1]; Severe acute respiratory syndrome coronavirus 2, HeLa-ACE2, Baseline response 0 %, EC90 CI (lower) 0.423 uM, EC90 CI (upper) 0.632 uM, Hill slope -3.108, Maximum measured 91.316 %, Maximum response 100 %, Minimum measured 1.9 %, R squared 0.978", "result": 2.12, "unit": "µM"}, {"measurement": "EC50", "setting": "SARS-CoV-2 [1]; hela-ace2", "result": 1.12, "unit": "µM"}, {"measurement": "EC50", "setting": "SARS-CoV-2 [2]; Severe acute respiratory syndrome coronavirus 2, Pneumocyte", "result": 7.67, "unit": "µM"}, {"measurement": "EC90", "setting": "SARS-CoV-2 [2]; Severe acute respiratory syndrome coronavirus 2, Pneumocyte, EC90 CI (lower) 1.944 uM, EC90 CI (upper) 9.946 uM, Hill slope -3.954, Maximum measured 131.986 %, Minimum measured 2.165 %, R squared 0.772", "result": 13.4, "unit": "µM"}]}, {"smiles": "CCNC(=O)c1cc2c(N[C@H](c3ccc4c(c3)OCCO4)C(C)C)ncnc2[nH]1", "values": [{"measurement": "EC50", "setting": "SARS-CoV-2 [1]; [3]", "result": 19.7, "unit": "µM"}, {"measurement": "EC90", "setting": "SARS-CoV-2 [1]; Severe acute respiratory syndrome coronavirus 2, HeLa-ACE2, Baseline response 0 %, Hill slope -1.464, Maximum measured 109.949 %, Maximum response 100 %, Minimum measured 49.504 %, R squared 0.869", "result": "> 20", "unit": "µM"}]}]}
